From ChEMBL document CHEMBL1127973, “A comparative molecular field analysis derived model of the binding of taxol analogues to microtubules” (Bioorg Med Chem Lett, 1994)

Experiments:
Tubulin (Homo sapiens) [1] = target: T1, Tubulin (Homo sapiens) (UniProt P68371+Q9H4B7+P0DPH7+P68366+Q13509+Q71U36+P04350+Q3ZCM7+P07437+P68363+Q9BQE3+Q6PEY2+Q13885+Q9BVA1+Q9BUF5); assay: Binding affinity to microtubules, activity expressed as log 1/ID50 of compound/ID50 of paclitaxel; assay type: protein-complex assay
Tubulin (Homo sapiens) [2] = target: T1, Tubulin (Homo sapiens); assay: Binding affinity to microtubules, activity expressed as ID50 of compound/ID50 of paclitaxel; assay type: protein-complex assay

SMILES | Log 1/ratio (Tubulin (Homo sapiens) [1]) | ID50 ratio (Tubulin (Homo sapiens) [2])
CCCCOC(=O)N[C@@H](c1ccccc1)[C@@H](O)C(=O)O[C@H]1C[C@@]2(O)[C@@H](OC(=O)c3ccccc3)[C@@H]3[C@]4(OC(C)=O)CO[C@@H]4C[C@H](O)[C@@]3(C)C(=O)[C@H](OC(C)=O)C(=C1C)C2(C)C | 0.0969 | 0.8
CC(=O)O[C@H]1C(=O)[C@@]2(C)[C@H]([C@H](OC(=O)c3ccccc3)[C@]3(O)C[C@H](OC(=O)[C@H](O)[C@@H](NC(=O)C(C)=O)c4ccccc4)C(C)=C1C3(C)C)[C@]1(OC(C)=O)CO[C@@H]1C[C@@H]2O | -0.544 | 3.5
CC(=O)O[C@H]1C(=O)[C@@]2(C)[C@H]([C@H](OC(=O)c3ccccc3)[C@]3(O)C[C@H](OC(=O)[C@H](NC(=O)OC(C)(C)C)[C@@H](O)c4ccccc4)C(C)=C1C3(C)C)[C@]1(OC(C)=O)CO[C@@H]1C[C@@H]2O | -1 | 10
C/C=C/C(=O)O[C@H]1C[C@@]2(O)[C@@H](OC(=O)c3ccccc3)[C@@H]3[C@]4(OC(C)=O)CO[C@@H]4C[C@H](O)[C@@]3(C)C(=O)[C@H](OC(C)=O)C(=C1C)C2(C)C | -2 | 100
CC(=O)O[C@@]12CO[C@@H]1C[C@H](O)[C@@]1(C)C(=O)[C@H](O)C3=C(C)[C@@H](OC(=O)CCc4ccccc4)C[C@@](O)([C@@H](OC(=O)c4ccccc4)[C@H]21)C3(C)C | -1.23 | 17
COc1ccc(C(=O)N[C@@H](c2ccccc2)[C@@H](O)C(=O)O[C@H]2C[C@@]3(O)[C@@H](OC(=O)c4ccccc4)[C@@H]4[C@]5(OC(C)=O)CO[C@@H]5C[C@H](O)[C@@]4(C)C(=O)[C@H](OC(C)=O)C(=C2C)C3(C)C)cc1 | 0.222 | 0.6
CC(=O)O[C@@]12CO[C@@H]1C[C@H](O)[C@@]1(C)C(=O)[C@H](O)C3=C(C)[C@@H](OC(=O)[C@H](O)[C@@H](NC(=O)OC(C)(C)C)c4ccccc4)C[C@@](O)([C@@H](OC(=O)c4ccccc4)[C@H]21)C3(C)C (stereo in doubt; 39) | 0.301 | 0.5
CC(=O)O[C@@]12CO[C@@H]1C[C@H](O)[C@@]1(C)C(=O)[C@H](O)C3=C(C)[C@@H](OC(=O)[C@@H](O)[C@H](NC(=O)OC(C)(C)C)c4ccccc4)C[C@@](O)([C@@H](OC(=O)c4ccccc4)[C@H]21)C3(C)C | -1.48 | 30
